# Experimental data from the supplement of paper PMC7017272.
# ± gives the standard deviation of the averaged measurements.
# Key:
# Assay in all cases: maximal % inhibition of viability relative to DMSO; higher = stronger effect
# UT-SCC-81 = conditions: culture condition: plastic 2D (no matrix); treatment time: 3 days
# Procedure: (§1)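 HNSCC cell lines (500 cells/well, 384-well) were cultured on plastic, on top of (2D) or embedded (3D) in Matrigel or human leiomyoma matrix Myogel (500 ug/mL; Myogel 3D mixed with rat collagen I). Cells were treated for 3 days with 5 ten-fold concentrations of each drug, and viability was read by CellTiter-Glo. Viability was normalised to DMSO and benzethonium chloride controls and fitted with the FIMM DSRT pipeline to give IC50 (nM), maximal % inhibition and DSS. Suffixes _1/_2/_3 are replicates. Only inhibition-mode (IC50) fits are kept.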
# UT-SCC-40 = conditions: treatment time: 3 days
# Procedure: as §1
# UT-SCC-42A = conditions: treatment time: 3 days
# Procedure: as §1
# UT-SCC-24B = conditions: treatment time: 3 days
# Procedure: as §1
# UT-SCC-42B = conditions: treatment time: 3 days
# Procedure: as §1
# UT-SCC-73 = conditions: treatment time: 3 days
# Procedure: as §1
# UT-SCC-44 = conditions: treatment time: 3 days
# Procedure: as §1
# UT-SCC-8 = conditions: treatment time: 3 days
# Procedure: as §1
# [1] = culture condition: embedded in Matrigel
# [2] = culture condition: embedded in Myogel + collagen I
# [3] = culture condition: on top of Matrigel
# [4] = culture condition: on top of Myogel
# [5] = culture condition: plastic 2D (no matrix)
structure (smiles),measurement,setting,value
CO[C@H]1C[C@@H]2CC[C@@H](C)[C@@](O)(O2)C(=O)C(=O)N2CCCC[C@H]2C(=O)O[C@H]([C@H](C)C[C@@H]2CC[C@@H](OC(=O)C(C)(CO)CO)[C@H](OC)C2)CC(=O)[C@H](C)/C=C(\C)[C@@H](O)[C@@H](OC)C(=O)[C@H](C)C[C@H](C)/C=C/C=C/C=C/1C [Temsirolimus],maximal % inhibition of viability,UT-SCC-81,49.7 ± 7.5%
same,maximal % inhibition of viability,UT-SCC-40; [1],33.9 ± 13%
same,maximal % inhibition of viability,UT-SCC-40; [2],40.5 ± 20%
same,maximal % inhibition of viability,UT-SCC-40; [3],24.6 ± 6.1%
same,maximal % inhibition of viability,UT-SCC-40; [4],21.9 ± 3.2%
same,maximal % inhibition of viability,UT-SCC-40; [5],22.1 ± 2.3%
same,maximal % inhibition of viability,UT-SCC-42A; [1],35 ± 6.8%
same,maximal % inhibition of viability,UT-SCC-42A; [2],39.1 ± 4.7%
same,maximal % inhibition of viability,UT-SCC-42A; [3],41 ± 2.4%
same,maximal % inhibition of viability,UT-SCC-42A; [4],37.4 ± 3.1%
same,maximal % inhibition of viability,UT-SCC-42A; [5],39.6 ± 2.3%
same,maximal % inhibition of viability,UT-SCC-24B; [1],25.8 ± 7.9%
same,maximal % inhibition of viability,UT-SCC-24B; [2],42.2 ± 4%
same,maximal % inhibition of viability,UT-SCC-24B; [3],27.4 ± 4.7%
same,maximal % inhibition of viability,UT-SCC-24B; [4],32.7 ± 1.8%
same,maximal % inhibition of viability,UT-SCC-24B; [5],29.7 ± 5.7%
same,maximal % inhibition of viability,UT-SCC-42B; [1],25.8 ± 20%
same,maximal % inhibition of viability,UT-SCC-42B; [3],17.6 ± 6.1%
same,maximal % inhibition of viability,UT-SCC-42B; [4],9.87 ± 4.1%
same,maximal % inhibition of viability,UT-SCC-42B; [5],15.3 ± 3.6%
same,maximal % inhibition of viability,UT-SCC-73; [1],32 ± 6.7%
same,maximal % inhibition of viability,UT-SCC-73; [2],38.7 ± 21%
same,maximal % inhibition of viability,UT-SCC-73; [3],29.7 ± 3.1%
same,maximal % inhibition of viability,UT-SCC-73; [4],34.5 ± 1.6%
same,maximal % inhibition of viability,UT-SCC-73; [5],24 ± 6.6%
same,maximal % inhibition of viability,UT-SCC-44; [1],29.4 ± 1.9%
same,maximal % inhibition of viability,UT-SCC-44; [2],38.9 ± 6.9%
same,maximal % inhibition of viability,UT-SCC-44; [3],38.4 ± 1.5%
same,maximal % inhibition of viability,UT-SCC-44; [4],38.6 ± 4%
same,maximal % inhibition of viability,UT-SCC-44; [5],35 ± 1.3%
same,maximal % inhibition of viability,UT-SCC-8; [1],41.8 ± 4.6%
same,maximal % inhibition of viability,UT-SCC-8; [2],31.4 ± 11%
same,maximal % inhibition of viability,UT-SCC-8; [3],38.9 ± 9.9%
same,maximal % inhibition of viability,UT-SCC-8; [4],48.1 ± 8.7%
same,maximal % inhibition of viability,UT-SCC-8; [5],42.3 ± 5.6%
